PMC3400326 (Pharmacogenomics and personalized medicine, 2011)

Assays:
SULT1A1 = SULT1A1 (Homo sapiens, UniProt P50225); test: intrinsic fluorescence titration; format: binding
SULT1E1 = target: T1, SULT1E1 (Homo sapiens, UniProt P49888); test: intrinsic fluorescence titration; format: binding
T1 sequence (P49888 1-294): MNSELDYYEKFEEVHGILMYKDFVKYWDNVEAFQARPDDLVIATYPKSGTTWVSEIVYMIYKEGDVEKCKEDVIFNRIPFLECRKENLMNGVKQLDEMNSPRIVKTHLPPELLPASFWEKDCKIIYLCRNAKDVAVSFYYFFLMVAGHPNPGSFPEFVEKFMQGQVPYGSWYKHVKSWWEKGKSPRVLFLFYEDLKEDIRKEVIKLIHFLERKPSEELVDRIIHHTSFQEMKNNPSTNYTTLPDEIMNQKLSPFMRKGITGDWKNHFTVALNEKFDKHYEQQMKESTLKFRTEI

SULT1A1, sequence (P50225 whole entry): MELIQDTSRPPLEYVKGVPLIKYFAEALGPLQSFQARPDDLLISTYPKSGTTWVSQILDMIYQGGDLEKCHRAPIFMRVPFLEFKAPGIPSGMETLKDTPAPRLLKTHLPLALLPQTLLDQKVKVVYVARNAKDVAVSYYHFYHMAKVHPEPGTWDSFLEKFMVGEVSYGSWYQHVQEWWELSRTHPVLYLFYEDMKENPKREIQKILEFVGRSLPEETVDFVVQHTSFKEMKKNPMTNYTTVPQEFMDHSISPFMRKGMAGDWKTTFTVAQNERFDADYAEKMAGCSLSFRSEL

Kd (SULT1A1): 2300 ± 400 nM
Kd (SULT1E1): 200 ± 20 nM
Structure (SMILES): C[C@]12CC[C@@H]3c4ccc(O)cc4C[C@@H](CCCCCCCCC[S+]([O-])CCCC(F)(F)C(F)(F)F)[C@H]3[C@@H]1CC[C@@H]2O (some centres unmarked) [fulvestrant]
